The text below walks through data of patent publication US20050209278A1, “Piperidinyl- and piperazinyl-sulfonylmethyl hydroxamic acids and their use as protease inhibitors” (priority 2002, published 2005).

Molecules are shown by their SMILES. Where a name gives a salt, the structure may show the parent alone.

The target in the assay is T1, MMP-1 (Homo sapiens, UniProt P03956).
T1 construct: made in house; host or cells: MMP-1-transfected HT-1080 cells (spent media)
T1 sequence (P03956 100-469): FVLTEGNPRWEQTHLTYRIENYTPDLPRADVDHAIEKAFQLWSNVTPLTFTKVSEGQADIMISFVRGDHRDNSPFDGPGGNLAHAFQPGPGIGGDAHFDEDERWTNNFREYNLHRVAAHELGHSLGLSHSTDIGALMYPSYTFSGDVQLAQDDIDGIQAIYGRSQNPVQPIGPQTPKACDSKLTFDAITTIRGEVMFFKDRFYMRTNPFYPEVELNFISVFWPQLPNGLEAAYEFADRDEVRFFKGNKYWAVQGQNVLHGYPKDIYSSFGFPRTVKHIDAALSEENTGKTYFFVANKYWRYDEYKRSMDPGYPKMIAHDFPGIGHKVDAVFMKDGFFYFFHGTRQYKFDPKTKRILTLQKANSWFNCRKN
Kind of assay: In vitro MMP inhibition, Ki determination (fluorogenic substrate II). The assay is classed as biochemical. The following applies: human recombinant enzyme; 4 μM substrate II; room temperature, 1 hr; read-out: MMP-1 Ki. Here is the method:
Several hydroxamic acids and salts thereof were analyzed in in vitro assays to determine their ability to inhibit the MMP cleavage of peptide substrates. […] and IC50 constants were calculated from the assayed hydroxamic acid-MMP interactions.
Human recombinant MMP-1, MMP-2, MMP-9, MMP-13, and MMP-14 were used in this assay. All enzymes were prepared in Assignee's laboratories following usual laboratory procedures. Protocols for the preparation and use of these enzymes are available in the scientific literature. See, e.g., Enzyme Nomenclature (Academic Press, San Diego, Calif., 1992) (and the citations therein). See also, Freije et al., “Molecular cloning and expression of collagenase-3, a novel human matrix metalloproteinase produced by breast carcinomas,” J Biol. Chem., 269(24), 16766-16773 (1994).
The MMP-1 proenzyme was purified from the spent media of MMP-1-transfected HT-1080 cells provided by Dr. Harold Welgus of Washington University (St. Louis, Mo.). The protein was purified on a zinc chelating column.
All MMPs were activated using 4-aminophenylmercuric acetate (“APMA”, Sigma Chemical, St. Louis, Mo.) or trypsin. MMP-9 also was activated using human recombinant MMP-3 (purified in Assignee's laboratory following standard cloning and purification techniques).
Two fluorogenic, methoxycoumarin-containing polypeptide substrates were used in the MMP inhibition assays: [drawing 427] Here, “Dpa” is 3-(2,4-dinitrophenyl)-L-2,3-diaminopropionyl group, and “MCA” is 7-methoxycoumarin-4-yl acetyl. Substrate (I) was purchased from Baychem (Redwood City, Calif.), and substrate II was prepared Assignee's laboratory. Substrate I was used in the IC50 determination assays, while substrate II was used in the Ki determination assays. In the absence of MMP inhibitory activity, either substrate is cleaved at the Gly-Leu peptide bond. This cleavage separates the highly fluorogenic peptide from the 2,4-dinitrophenyl quencher, thus resulting in increase of fluorescent intensity.
The stock solutions of the assayed hydroxamic acids (or salts thereof) were prepared in 1% dimethyl sulfoxide (DMSO). These stock solutions were diluted in Buffer A (100 mM Tris-HCl, 100 mM NaCl, 10 mM CaCl2, 0.05% polyoxyethylene 23 lauryl ether, pH 7.5) to obtain solutions with different hydroxamic acid concentrations, i.e., assay solutions with different concentrations of the assayed MMP inhibitory compound. The experiment controls contained the same amount of Buffer A/DMSO as the assayed sample, but contained no hydroxamic acid (or salt thereof).
The assays from which the Ki determinations were made were performed as follows. The assayed hydroxamic acid samples were incubated in separate wells of untreated white polystyrene plates (Nunc Nalgene International, Rochester, N.Y.), and analyzed on a Tecan SpectraFlour Plus plate reader. The excitation wavelength was 330 nm, and the emission wavelength—420 nm. All samples (assayed hydroxamic acids and controls) were incubated in separate plate wells at room temperature for 1 hr in the presence of 4 μM of MMP substrate (II). In the absence of MMP inhibitory activity, substrate II was cleaved at the Gly-Leu bond resulting in an increase of relative fluorescence. Inhibition was observed as a reduced rate of this increase in relative fluorescence. The various hydroxamic acids were analyzed using a single low enzyme concentration with a single substrate concentration fixed at or below the Km. This protocol is a modification of method by Knight et al., FEBS Lett., 296(3), 263-266 (1992). Apparent inhibitory constants were determined by non-linear regression of reaction velocity as a function of inhibitor and enzyme concentration using Morrison's equation, as described by Kuzmic, Anal. Biochem. 286, 45-50 (2000). […] Since the substrate concentration was chosen to be at or below the Km, the apparent Ki's from this analysis were reported as Ki's without correction for the influence of substrate.
As to `CCCCc1cnc(N2CCN(S(=O)(=O)C3(C(=O)NO)CCOCC3)CC2)cn1` [Example 1, 4-{[4-(5-butylpyrazin-2-yl)piperazin-1-yl]sulfonyl}-N-hydroxytetrahydro-2H-pyran-4-carboxamide Dihydrochloride], the Ki (usually a dissociation constant, usually derived from enzyme kinetics or from competition with a known ligand) was over 10 µM.
The same measure for `O=C(NO)C1(S(=O)(=O)N2CCN(c3ccc(OCC(F)(F)F)cc3)CC2)CCOCC1` [Example 2, N-hydroxy-4-({4-[4-(2,2,2-trifluoroethoxy)phenyl]piperazin-1-yl}sulfonyl)tetrahydro-2H-pyran-4-carboxamide Hydrochloride]: over 10 µM; for `CCOc1ccc(N2CCN(S(=O)(=O)C3(C(=O)NO)CCOCC3)CC2)cc1` [Example 3, 4-{[4-(4-ethoxyphenyl)piperazinyl]sulfonyl}perhydro-2H-pyran-4-carbohydroxamic Acid]: 7.53 µM.
The result for `O=C(NO)C1(S(=O)(=O)N2CCN(c3ccc(OC(F)(F)C(F)F)cc3)CC2)CCOCC1` [Example 4, 4-({4-[4-(1,1,2,2-tetrafluoroethoxy)phenyl]piperazinyl}sulfonyl)perhydro-2H-pyran-4-carbohydroxamic Acid] reads 1.47 µM; that for `CCCCc1ccc(N2CCN(S(=O)(=O)C3(C(=O)NO)CCN(CCOC)CC3)CC2)cc1` [Example 5, 4-{[4-(4-butylphenyl)piperazin-1-yl]sulfonyl}-N-hydroxy-1-(2-methoxyethyl)piperidine-4-carboxamide Dihydrochloride], over 10 µM.
Turning to `CCCCCc1ccc(N2CCN(S(=O)(=O)C3(C(=O)NO)CCN(CCOC)CC3)CC2)cc1` [Example 6, N-Hydroxy-1-(2-methoxyethyl)-4-{[4-(4-pentylphenyl)piperazin-1-yl]sulfonyl}piperidine-4-carboxamide Dihydrochloride], the Ki is over 10 µM.
In the case of `O=C(NO)C1(S(=O)(=O)N2CCN(c3ccc(OCCCC(F)(F)F)cc3)CC2)CCOCC1` [Example 7, N-hydroxy-4-({4-[4-(4,4,4-trifluorobutoxy)phenyl]piperazin-1-yl}sulfonyl)tetrahydro-2H-pyran-4-carboxamide Hydrochloride], the Ki is over 10 µM.
For the molecule `COc1ccc(-c2cnc(N3CCN(S(=O)(=O)C4(C(=O)NO)CCOCC4)CC3)nc2)cc1` [Example 8, N-hydroxy-4-({4-[5-(4-methoxyphenyl)pyrimidin-2-yl]piperazin-1-yl}sulfonyl)tetrahydro-2H-pyran-4-carboxamide Hydrochloride], the Ki was 0.748 µM.
On to `COCCN1CCC(C(=O)NO)(S(=O)(=O)N2CCN(c3ccc(OCCCC(F)(F)F)cc3)CC2)CC1` [Example 9, N-hydroxy-1-(2-methoxyethyl)-4-({4-[4-(4,4,4-trifluorobutoxy)phenyl]piperazin-1-yl}sulfonyl)piperidine-4-carboxamide Dihydrochloride], for which the Ki is over 10 µM.
With `O=C(NO)C1(S(=O)(=O)N2CCN(c3ccc(OCC4CC4)c(F)c3)CC2)CCN(C2CC2)CC1` [Example 10, 1-cyclopropyl-4-[[4-[4-(cyclopropylmethoxy)-3-fluorophenyl]-1-piperazinyl]sulfonyl]-N-hydroxy-4-piperidinecarboxamide, dihydrochloride], the Ki is over 10 µM.
The result for `CCCCOc1ccc(N2CCN(S(=O)(=O)C3(C(=O)NO)CCN(CCOC)CC3)CC2)cc1F` [Example 11, 4-[[4-(4-butoxy-3-fluorophenyl)-1-piperazinyl]sulfonyl]-N-hydroxy-1-(2-methoxyethyl)-4-piperidinecarboxamide, Dihydrochloride] reads over 10 µM; that for `O=C(NO)C1(S(=O)(=O)N2CCN(c3ccc(-c4ccccc4)c(F)c3)CC2)CCOCC1` [Example 12, 4-{[4-(2-fluoro-1,1′-biphenyl-4-yl)piperazin-1-yl]sulfonyl}-N-hydroxytetrahydro-2H-pyran-4-carboxamide Hydrochloride], over 10 µM.
The same measure for `CCCCCc1ccc(N2CCN(S(=O)(=O)C3(C(=O)NO)CCN(CCOC)CC3)CC2)cc1F` [Example 13, 4-{[4-(3-fluoro-4-pentylphenyl)piperazin-1-yl]sulfonyl}-N-hydroxy-1-(2-methoxyethyl)piperidine-4-carboxamide Dihydrochloride]: over 10 µM.
The same measure for `COCCOc1ccc(N2CCN(S(=O)(=O)C3(C(=O)NO)CCOCC3)CC2)cc1` [Example 14, N-hydroxy-4-({4-[4-(2-methoxyethoxy)phenyl]piperazin-1-yl}sulfonyl)tetrahydro-2H-pyran-4-carboxamide Hydrochloride]: over 10 µM.
On to `CCCCCc1ccc(C2CCN(S(=O)(=O)C3(C(=O)NO)CCN(CCOC)CC3)CC2)cc1` [Example 15, N-hydroxy-1-(2-methoxyethyl)-4-{[4-(4-pentylpheyl)piperidin-1-yl]sulfonyl}piperidine-4-carboxamide Hydrochloride], for which the Ki is over 10 µM.
The result for `CCCCOc1ccc(C2CCN(S(=O)(=O)C3(C(=O)NO)CCN(CCOC)CC3)CC2)cc1` [Example 16, 4-{[4-(4-butoxyphenyl)piperidin-1-yl]sulfonyl}-N-hydroxy-1-(2-methoxyethyl)piperidine-4-carboxamide Hydrochloride] reads over 10 µM; that for `O=C(NO)C1(S(=O)(=O)N2CCN(c3ccc(CCC(F)(F)C(F)(F)F)cc3)CC2)CCOCC1` [Example 17, N-hydroxy-4-({4-[4-(3,3,4,4,4-pentafluorobutyl)phenyl]piperazin-1-yl}sulfonyl)tetrahydro-2H-pyran-4-carboxamide Hydrochloride], over 10 µM; that for `O=C(NO)C1(S(=O)(=O)N2CCC(c3ccc(CCC(F)(F)C(F)(F)F)cc3)CC2)CCOCC1` [Example 18, N-hydroxy-4-({4-[4-(3,3,4,4,4-pentafluorobutyl)phenyl]piperidin-1-yl}sulfonyl)tetrahydro-2H-pyran-4-carboxamide], 7.35 µM.
On to `CCCCc1ccc(C2CCN(S(=O)(=O)C3(C(=O)NO)CCOCC3)CC2)s1` [Example 19, 4-{[4-(5-butylthien-2-yl)piperidin-1-yl]sulfonyl}-N-hydroxytetrahydro-2H-pyran-4-carboxamide], for which the Ki was over 10 µM.
The same measure for `COCCN1CCC(C(=O)NO)(S(=O)(=O)N2CCC(c3ccc(OCCCC(F)(F)F)cc3)CC2)CC1` [Example 20, N-hydroxy-1-(2-methoxyethyl)-4-({4-[4-(4,4,4-trifluorobutoxy)phenyl]piperidin-1-yl}sulfonyl)piperidine-4-carboxamide Hydrochloride]: over 10 µM; for `CCCCCc1ccc(N2CCN(S(=O)(=O)C3(C(=O)NO)CCN(C(=O)C(F)(F)F)CC3)CC2)cc1` [Example 21, N-hydroxy-4-{[4-(4-pentylphenyl)piperazin-1-yl]sulfonyl}-1-(trifluoroacetyl)piperidine-4-carboxamide Hydrochloride]: over 10 µM; for `CCCCCc1ccc(N2CCN(S(=O)(=O)C3(C(=O)NO)CCN(CC)CC3)CC2)cc1F` [Example 22, 1-ethyl-4-{[4-(3-fluoro-4-pentylphenyl)piperazin-1-yl]sulfonyl}-N-hydroxypiperidine-4-carboxamine Hydrochloride]: over 10 µM.
